Results: ChEMBL document CHEMBL1127151, “Derivatives of cyclosporin at position 2 as probes for cyclophilin” (1993)

Tests used:
[1] = organism: Mus musculus; test: The immunosuppressive activity of compound was measured with the help of a mixed lymphocyte reaction in mouse (MLR_M), activity relative to compound 1; format: functional
[2] = In vitro binding affinity of compound was measured to Cyclophilin under competitive ELISA system, activity relative to compound 1
[3] = tested on: T-cell; test: The immunosuppressive activity of compound was measured with the help of a reporter gene assay (IL2_RGA), activity relative to compound 1; format: functional, Homo sapiens

SMILES	Ratio [2]	Ratio [1]	Ratio [3]
C/C=C/C[C@@H](C)[C@@H](O)[C@H]1C(=O)N[C@@H](CC(Cl)Cl)C(=O)N(C)CC(=O)N(C)[C@@H](CC(C)C)C(=O)N[C@@H](C(C)C)C(=O)N(C)[C@@H](CC(C)C)C(=O)N[C@@H](C)C(=O)N[C@H](C)C(=O)N(C)[C@@H](CC(C)C)C(=O)N(C)[C@@H](CC(C)C)C(=O)N(C)C(C(C)C)C(=O)N1C (single isomer, unassigned)	250	135	200
C/C=C/C[C@@H](C)[C@@H](O)[C@H]1C(=O)N[C@@H](C[C@@H](C)O)C(=O)N(C)CC(=O)N(C)[C@@H](CC(C)C)C(=O)N[C@@H](C(C)C)C(=O)N(C)[C@@H](CC(C)C)C(=O)N[C@@H](C)C(=O)N[C@H](C)C(=O)N(C)[C@@H](CC(C)C)C(=O)N(C)[C@@H](CC(C)C)C(=O)N(C)C(C(C)C)C(=O)N1C (single isomer, unassigned)	207	–	–

Now from value to compound, other results behind:

Ratio [2]	SMILES	Ratio [1]	Ratio [3]
5.2	C/C=C/C[C@@H](C)[C@@H](O)[C@H]1C(=O)N[C@@H]([C@H](O)CC)C(=O)N(C)CC(=O)N(C)[C@@H](CC(C)C)C(=O)N[C@@H](C(C)C)C(=O)N(C)[C@@H](CC(C)C)C(=O)N[C@@H](C)C(=O)N[C@H](C)C(=O)N(C)[C@@H](CC(C)C)C(=O)N(C)[C@@H](CC(C)C)C(=O)N(C)C(C(C)C)C(=O)N1C (single isomer, unassigned)	2.3	3
250	C/C=C/C[C@@H](C)[C@@H](O)[C@H]1C(=O)N[C@@H](CC2CC2)C(=O)N(C)CC(=O)N(C)[C@@H](CC(C)C)C(=O)N[C@@H](C(C)C)C(=O)N(C)[C@@H](CC(C)C)C(=O)N[C@@H](C)C(=O)N[C@H](C)C(=O)N(C)[C@@H](CC(C)C)C(=O)N(C)[C@@H](CC(C)C)C(=O)N(C)C(C(C)C)C(=O)N1C (single isomer, unassigned)	120	225
1.4	C/C=C/C[C@@H](C)[C@@H](O)[C@H]1C(=O)N[C@@H]([C@@H](C)O)C(=O)N(C)CC(=O)N(C)[C@@H](CC(C)C)C(=O)N[C@@H](C(C)C)C(=O)N(C)[C@@H](CC(C)C)C(=O)N[C@@H](C)C(=O)N[C@H](C)C(=O)N(C)[C@@H](CC(C)C)C(=O)N(C)[C@@H](CC(C)C)C(=O)N(C)C(C(C)C)C(=O)N1C (single isomer, unassigned)	1.7	1
4	C/C=C/C[C@@H](C)[C@@H](O)[C@H]1C(=O)N[C@@H](CCC)C(=O)N(C)CC(=O)N(C)[C@@H](CC(C)C)C(=O)N[C@@H](C(C)C)C(=O)N(C)[C@@H](CC(C)C)C(=O)N[C@@H](C)C(=O)N[C@H](C)C(=O)N(C)[C@@H](CC(C)C)C(=O)N(C)[C@@H](CC(C)C)C(=O)N(C)C(C(C)C)C(=O)N1C (single isomer, unassigned) [GECLOSPORIN]	1.6	2.6
